The source of these data is US20230263783A1, “CANCER TREATMENT BY COMBINED INHIBITION OF POLO-LIKE KINASE AND MICROTUBULE POLYMERIZATION” (Massachusetts Institute of Technology, priority 2022, published 2023).

Where a SMILES comes first, the peptide text is derived from it. [ ]: non-standard residue; d: D form. The star is where a group is joined. Dolaproine = CO[C@@H]([C@@H]1CCCN1)[C@@H](C)C(=O)O; Dil = CC[C@H](C)[C@H](NC)[C@@H](CC(=O)O)OC; X1 = C[C@@H](N*)[C@@H](O)c1ccccc1; NMeV = CN[C@H](C(=O)O)C(C)C

Series [1] concerns variety of tumors, including those that express the multidrug resistance (MDR) phenotype. The following applies: read-out: IC50 against a variety of tumors; cited from earlier work.
Series [2] deals with growth factor activated endothelial cells. Conditions: cited from earlier work.
In series [3] the test system is bladder cancer cell lines. In words: Viability dose matrix in panel of four bladder cancer cell lines. It is filed as cell-based. Conditions: MMAE with onvansertib, five days, FIGS. 7A-7D. The method, then:
(§1) All cell lines were cultured in a humidified incubator at 37° C. and with 5% CO2, were maintained sub-confluent and used for no more than 20 passages. Media was supplemented with 10% fetal bovine serum (FBS), contained 2 mM glutamine and lacked antibiotics, unless otherwise noted. […]
(§2) For dose response experiments and experiments that examine synergy as a measure of change in relative viability, cells were grown in 384-well plates in triplicate. […] After five days, relative viability was assessed using […]-GLO™ (Promega) Luminescent Cell Viability Assay according to the manufacturer's recommendations. Luminescence was measured using an […]™ M200 Pro plate reader (Tecan Group Ltd.). […]

Another series has as its system UMUC3. In words: Viability dose matrix in UMUC3 bladder cancer cells. The following applies: MMAE with onvansertib, five days, FIG. 7D. It is filed as cell-based. The method, then: as §1, §2
For series [4], the system named is C4-2 castrate resistant prostate cancer (CRPC) cells. In words: Relative viability after drug dose matrix (CellTiter-Glo, Bliss Independence) in C4-2 cells. It is filed as cell-based. Conditions: for concentrations at which the more than additive reduction occurs / reduction in cancer cell viability of maytansinoid with Plk1 inhibitor versus each alone: C4-2 cells, with onvansertib; for reduction in cancer cell viability of maytansinoid with Plk1 inhibitor versus each alone: five days, free agents, FIGS. 5A and 5B. The method, then:
All cell lines were cultured in a humidified incubator at 37° C. and with 5% CO2, were maintained sub-confluent and used for no more than 20 passages. Media was supplemented with 10% fetal bovine serum (FBS), contained 2 mM glutamine and lacked antibiotics, unless otherwise noted. A549, BT-20, CCD-1112sk, CCD-18co, CFPAC1, HCT 116, HeLa, HT-29, HT55, MCF7, MDA-MB-157, MDA-MB-231, MDA-MB-415, MDA-MB-436, MDA-MB-453, MDA-MB-468, SW48, T98G, U-2 OS, U-87 MG, CAOV3, COV362, and JIMT1 cells were grown in DMEM; 22RV1, AU565, C4-2, CAL33, COL0205,HCC38, HCT-15, KYSE150, LNCaP, LOVO, NCI-H1299, PC-3, ZR-75-1, HCC1419, HCC1569, HCC1954, ZR7530, OVCAR-4, OVCAR8 cells were grown in RPMI 1640; HT1197, HT1376, J82, UMUC3 cells were grown in MEM; OV90, TOV122D, TOV21G cells were grown in 1:1 MCDB105:Medial99 15% FBS; 59M, OAW28, OAW42 cells were grown in Advanced DMEM 0.023 IU/ml insulin; ES2, SKOV3 cells were grown in McCoy's 5A; JHOS2, JHOS4 cells were grown in 1:1 DMEM:HamF12; HUVEC cells were grown in EBM with EGM™-2 BULLETKIT™
For dose response experiments and experiments that examine synergy as a measure of change in relative viability, cells were grown in 384-well plates in triplicate. The following day the cells were subjected to a drug dose matrix that consisted of increasing concentrations of a Plk inhibitor, increasing concentrations of a microtubule polymerization inhibitor, and all pairwise combinations. Drugs were dissolved in DMSO and diluted in the appropriate cell growth media while maintaining a constant final concentration of DMSO. After five days, relative viability was assessed using […]-GLO™ (Promega) Luminescent Cell Viability Assay according to the manufacturer's recommendations. Luminescence was measured using an […]™ M200 Pro plate reader (Tecan Group Ltd.). […] The dose response plots (for example FIG. 1A) show sensitivity to increasing concentrations of a microtubule polymerization inhibitor in the absence or presence of a constant amount of Plk inhibitor. Bars represent the standard error of the mean. The concentration of Plk inhibitor chosen to presented was based on a ˜20-30% reduction of viability when that drug was used at that dose in isolation. The entire amount of greater-than-additive response observed in the dose matrix is the integrated volume between the observed and expected surfaces generated by the response matrix and is also known as Bliss Volume. Bliss Volume synergy metrics are presented in FIG. 3 as the fractional change in volume between the expected and observed response surfaces.
A general note: Cellular ATP, detected with luciferase, serves as a proxy for viable cell number.

Series [5] relates to Her2+ breast cancer cell lines. In words: Viability dose matrix in panel of six Her2+ breast cancer cell lines. Type of series: cell-based. The following applies: DM1 with onvansertib, five days, majority of six cell lines, FIGS. 8A-8F. The procedure: as §1, §2
The subject of series [6] is panel of >50 other kinases. Conditions: in vitro; cited from earlier work.
Series [7] deals with HCT116, NCI-H460, and taxane-resistant CXB1 colon carcinoma xenografts. The arrangement: dose or concentration left out as unconfirmed. The following applies: cited from earlier work.
Series [8] has as its system Her2+ trastuzumab-resistant breast cancer. The following applies: via CDK1-dependent phosphorylation and inactivation of Bcl-2/xL; cited from earlier work.
For series [9] the following is noted: cited from earlier work.
For series [10] the following is noted: oral administration; cited from earlier work.
Series [11] deals with T47D cells. The following applies: read-out: EC50 for caspase activation; cited from earlier work.
The test system of series [12] is T47D cells. The following applies: read-out: GI50, cell proliferation; cited from earlier work.
Series [13] deals with ovarian cancer cell lines. In words: Viability dose matrix in panel of 14 ovarian cancer cell lines. It is filed as cell-based. Conditions: DM4 with onvansertib, five days, FIGS. 6A-6N. The method, then: as §1, §2
The conditions of series [14]: relative to 2-ME; cited from earlier work.

Take `COc1ccc(NS(=O)(=O)c2c(F)c(F)c(F)c(F)c2F)cc1F` [T138067]: the IC50 in series [1] is 11 to 165 nM.

For the compound `COc1cc(C(=O)c2c(C)oc3c(O)c(OC)ccc23)cc(OC)c1OC` [BNC-105], in [2], the “selectivity for growth factor activated endothelial cells compared to quiescent HUVECs” value is 81 fold.

`CC[C@H](C)[C@@H]([C@@H](CC(=O)N1CCC[C@H]1[C@H](OC)[C@@H](C)C(=O)N[C@H](C)[C@@H](O)c1ccccc1)OC)N(C)C(=O)[C@@H](NC(=O)[C@@H](NC)C(C)C)C(C)C` [MMAE, monomethyl auristatin E] (H-[NMeV]V[Dil][Dolaproine]-X1): the “response to the combination in bladder cancer cell lines” value in series [3] is reported as “Varying amounts of greater than additive responses”. Also, the “response to the combination in UMUC3” value with UMUC3 is “very notable response”.

Regarding `COc1cc2cc(c1Cl)N(C)C(=O)C[C@H](OC(=O)[C@H](C)N(C)C(=O)CCS)C1(C)O[C@H]1[C@H](C)[C@@H]1C[C@@](O)(NC(=O)O1)[C@H](OC)/C=C/C=C(\C)C2` (stereo partly shown) [DM1], in series [4], the “concentrations at which the more than additive reduction occurs” value was “sub-nanomolar” and the “reduction in cancer cell viability of maytansinoid with Plk1 inhibitor versus each alone” value was “more than the additive reduction”. Further, the “response to combined Plk1 inhibitor and DM1” value in series [5] is “greater than additive response”.

For the compound `CC[C@@H]1C(=O)N(C)c2cnc(Nc3ccc(C(=O)N[C@H]4CC[C@H](N5CCN(CC6CC6)CC5)CC4)cc3OC)nc2N1C(C)C` [BI6727], the “effect of the combination of TH588 with a Plk1 inhibitor” value in series [4] (each Plk1 inhibitor in combination with TH588, relative viability) is on record as “more than additive”. For the same compound, the “inhibitory activity against a panel of >50 other kinases” value in [6] is “no inhibitory activity”. Further, the “growth of human carcinoma xenografts” value in [7] is “significantly inhibits the growth”. In addition, the “effect on T-DM1 resistance” value in series [8] is “overcomes T-DM1 resistance”. For the same compound, in [9] (advanced solid tumors, i.v. once every 3 weeks, based on overall tolerability), the “recommended dose for further development” value is 300 mg. Further, the MTD in series [9] (advanced solid tumors, i.v. once every 3 weeks) was 400 mg. Moreover, the “MTD in combination with afatinib” value in series [9] (advanced solid tumors) is recorded as 300 mg.

On to `COc1ccc(S(=O)(=O)Nc2cccnc2Nc2ccc(O)cc2)cc1` [ABT-751], for which the “overall mean Tmax” value in series [10] is reported as “about 2 h”. Further, the maximum tolerated dose in series [9] (daily schedule, phase I) is 250 mg/day.

Take `COc1ccc(N(C)c2nc(Cl)nc3ccccc23)cc1` [MPI-0441138]: the EC50 with T47D cells [11] is 2 nM. Besides, in the series on T47D cells [12], the GI50 is 2 nM.

Turning to `COc1cc2cc(c1Cl)N(C)C(=O)C[C@H](OC(=O)[C@H](C)N(C)C(=O)CCC(C)(C)S)C1(C)O[C@H]1[C@H](C)[C@@H]1C[C@@](O)(NC(=O)O1)[C@H](OC)/C=C/C=C(\C)C2` (stereo partly shown) [DM4], in series [4], the “concentrations at which the more than additive reduction occurs” value is “sub-nanomolar” and the “reduction in cancer cell viability of maytansinoid with Plk1 inhibitor versus each alone” value is “more than the additive reduction”. Further, the “cell lines with greater than additive responses to the drug combination” value in series [13] is reported as “Ten of fourteen”.

In the case of `COc1cc2c(cc1O)CC[C@@H]1[C@@H]2CC[C@]2(C)C(=O)CC[C@@H]12` [2-methoxyestrone], the “loss in activity in vitro on oxidation of 2-ME to 2-methoxyestrone” value in series [14] is 10-to 100 fold.

Usually IC50 stands for the concentration that inhibits the measured activity by half. As a reminder, the EC50 is the concentration needed to bring the measured effect to its halfway point.
